Laboratory results published in patent US20070116654A1, “Cosmetics” (SHISEIDO CO., LTD., priority 2001, published 2007).

System: back of a marmot
Test: Continuous skin irritation test of retinol
Type: in vivo
Conditions: polar oil blend ratio 8 mass %, 0.2 mass % retinol
Method: “Continuous Skin Irritation Test”
0.05 ml of a sample solution containing a lipophilic drug was applied on a 2×2 cm area of the back of a marmot (first application).
24 hours later, the second application was done.
Again, 24 hours later, the third application was done.
Before the second application, before the third application, and 24 hours after the third application, skin reactions such as erythema and edema was observed by naked eye. Evaluation was conducted based on the following criteria, and the average of the three scores was used as the skin reaction score.
Evaluation Criteria of the Skin Reaction

`CCCCCCCC(=O)OCC(COC(=O)CCCCCCC)(COC(=O)CCCCCCC)COC(=O)CCCCCCC` [pentaerythrityl tetraoctanoate] was tested, and the “skin irritation suppression effect (retinol), FIG. 9” value was “superior skin irritation suppression effect”.
